# Experimental data reported in patent US20140155445A1, “Compounds and Methods for Treating Cancer and Diseases of the Central Nervous System” (Osta Biotechnologies Inc., priority 2007, published 2014).
# Counter-ions that a name gives are not always drawn. Like-named read-outs stand apart in the source and are kept apart here.
# Columns and labels:
# HO-2 (rat brain) = target: T1, HO-2 (rat brain) (Rattus norvegicus, UniProt P23711); assay: HO enzymatic activity in rat brain microsomal fraction (CO formed from methemalbumin, gas chromatography); format: biochemical
# T1 construct: brain microsomes were used as a source of HO-2; from tissue; host or cells: brain microsomal fraction of adult male Sprague-Dawley rats
# T1 sequence (P23711 1-315): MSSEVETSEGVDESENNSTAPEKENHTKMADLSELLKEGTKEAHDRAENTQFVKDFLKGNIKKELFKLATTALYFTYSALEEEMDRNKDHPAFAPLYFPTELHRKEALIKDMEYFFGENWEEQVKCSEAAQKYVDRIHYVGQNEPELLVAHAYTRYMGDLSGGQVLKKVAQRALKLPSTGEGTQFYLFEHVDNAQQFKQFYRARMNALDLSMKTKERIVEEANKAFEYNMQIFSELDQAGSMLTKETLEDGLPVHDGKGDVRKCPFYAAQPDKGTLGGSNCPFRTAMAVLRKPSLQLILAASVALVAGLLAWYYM
# HO-1 (rat spleen) = target: T2, HO-1 (rat spleen) (Rattus norvegicus, UniProt P06762); assay: HO enzymatic activity in rat spleen microsomal fraction (CO formed from methemalbumin, gas chromatography); format: biochemical
# T2 construct: Spleen microsomes were used as a source of HO-1; from tissue; host or cells: spleen microsomal fraction of adult male Sprague-Dawley rats
# T2 sequence (P06762 1-289): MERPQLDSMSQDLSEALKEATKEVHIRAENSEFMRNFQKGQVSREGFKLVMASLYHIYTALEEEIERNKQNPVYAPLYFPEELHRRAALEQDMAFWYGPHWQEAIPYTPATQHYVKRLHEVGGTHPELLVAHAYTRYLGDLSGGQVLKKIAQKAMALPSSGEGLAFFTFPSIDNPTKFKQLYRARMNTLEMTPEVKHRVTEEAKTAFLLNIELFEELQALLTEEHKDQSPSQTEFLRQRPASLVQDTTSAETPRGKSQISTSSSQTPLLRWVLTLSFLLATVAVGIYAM
# [1] = rat spleen microsomes, average ± standard deviation of replicate experiments, read-out: IC50 HO-1 (rat spleen)/μM
# [2] = rat brain microsomes, average ± standard deviation of replicate experiments, read-out: IC50 HO-2 (rat brain)/μM
IC50 (HO-1 (rat spleen); [1]),IC50 (HO-2 (rat brain); [2]),SMILES,"IC50 (HO-2 (rat brain); rat brain microsomes, average ± standard deviation of replicate experiments, hydrochloride, read-out: IC50 HO-2 (rat brain)/μM)",IC50 (HO-2 (rat brain)),IC50 (HO-1 (rat spleen))
4 ± 1 µM,25 ± 5 µM,O=C(Cn1ccnc1)c1ccc(I)cc1 [2-imidazol-1-yl-1-(4-iodo-phenyl)ethanone],,,
4 ± 2 µM,0.9 ± 0.1 µM,O=C(Cn1ccnc1)c1ccc(CCc2ccccc2)cc1 [2-imidazol-1-yl-1-(4-phenethyl-phenyl)ethanone hydrochloride],,,
4 ± 1 µM,6.7 ± 0.3 µM,"O=C(Cn1ccnc1)c1ccc2c(c1)CCCC2 [2-imidazol-1-yl-1-(5,6,7,8-tetrahydro-naphthalen-2-yl)-ethanone hydrochloride]",,,
4.6 ± 0.1 µM,37 ± 9 µM,O=C(Cn1ccnc1)c1ccc2c(c1)CCC2 [2-imidazol-1-yl-1-indan-5-yl-ethanone hydrochloride],,,
2.6 ± 0.1 µM,2.2 ± 0.2 µM,"O=C(CCn1ccnc1)C(c1ccccc1)c1ccccc1 [4-(1H-Imidazol-1-yl)-1,1-diphenyl-butan-2-one hydrochloride]",,,
6.7 ± 0.2 µM,> 100 µM,O=C(CCc1ccc(OC(=O)c2ccccc2)cc1)Cn1ccnc1 [4-(4-(1H-Imidazol-1-yl)-3-oxobutyl)phenyl benzoate hydrochloride],,,
0.25 ± 0.01 µM,1.4 ± 0.1 µM,O=C(CCc1ccc(C(F)(F)F)cc1)Cn1ccnc1 [4-(4-(Trifluoromethyl)phenyl)-1-(1H-imidazol-1-yl)-2-butanone hydrochloride],,,
> 100 µM,> 100 µM,O=C(CCc1ccc(O)cc1)Cn1ccnc1 [4-(4-Hydroxyphenyl)-1-(1H-imidazol-1-yl)butan-2-one hydrochloride],,,
0.5 ± 0.1 µM,4 ± 0.6 µM,OC(CCc1ccc(Cl)cc1)Cn1ccnc1 (stereo not drawn) [4-(4-chlorophenyl)-1-(1H-imidazol-1-yl)butan-2-ol hydrochloride],,,
0.47 ± 0.05 µM,4 ± 2 µM,Clc1ccc(CCCCn2ccnc2)cc1 [4-(4-chlorophenyl)-1-(1H-imidazol-1-yl)butane hydrochloride],,,
0.11 ± 0.06 µM,1.8 ± 0.7 µM,O=C(CCc1ccc(I)cc1)Cn1ccnc1 [4-(4-iodophenyl)-1-(1H-imidazol-1-yl)butan-2-one hydrochloride],,,
0.2 ± 0.03 µM,0.9 ± 0.2 µM,CC(C)(C)c1ccc(CCC(=O)Cn2ccnc2)cc1 [4-(4-tert-Butyl-phenyl)-1-(1H-imidazol-1-yl)-butan-2-one hydrochloride],,,
9 ± 2 µM,90 ± 33 µM,"O=C(CCc1ccccc1)Cn1cnc(-c2ccccc2)n1 [4-Phenyl-1-(3-phenyl-[1,2,4]triazol-1-yl)-butan-2-one]",,,
> 100 µM,> 100 µM,O=C(CCc1ccccc1)Cn1nnnc1-c1ccccc1 [4-Phenyl-1-(5-phenyl-tetrazol-1-yl)-butan-2-one],,,
> 100 µM,> 100 µM,O=C(CCc1ccccc1)Cn1nnc(-c2ccccc2)n1 [4-Phenyl-1-(5-phenyl-tetrazol-2-yl)-butan-2-one],,,
3.6 ± 0.2 µM,38 ± 5 µM,"[N-]=[N+]=NC[C@@H]1CO[C@@](CCc2ccc(Cl)cc2)(Cn2ccnc2)O1 [(2R,4R)-1-{4-azidomethyl-2-[2-(4-chloro-phenyl)-ethyl]-[1,3]dioxolan-2-ylmethyl}-1H-imidazole]",,,
10 ± 6 µM,26 ± 3 µM,"Clc1ccc(CC[C@@]2(Cn3ccnc3)OC[C@@H](Cn3ccnc3)O2)cc1 [(2R,4R)-2-[2-(4-chlorophenyl)ethyl]-2-[(1H-imidazol-1-yl)methyl]-4-[(1H-imidazol-1-yl)methyl]-1,3-dioxolane dihydrochloride]",,,
3.5 ± 0.1 µM,122 ± 30 µM,"ClC[C@@H]1CO[C@@](CCc2ccc(Cl)cc2)(Cn2ccnc2)O1 [(2R,4S)-1-{4-chloromethyl-2-[2-(4-chloro-phenyl)-ethyl]-[1,3]dioxolan-2-ylmethyl}-1H-imidazole hydrochloride]",,,

# The remaining lines, values behind:
SMILES,IC50 (HO-1 (rat spleen); [1]),IC50 (HO-2 (rat brain); [2]),"IC50 (HO-2 (rat brain); rat brain microsomes, average ± standard deviation of replicate experiments, hydrochloride, read-out: IC50 HO-2 (rat brain)/μM)",IC50 (HO-2 (rat brain)),IC50 (HO-1 (rat spleen))
"Brc1ccc(CCC2(Cn3ccnc3)OCCO2)cc1 [2-[2-(4-bromophenyl)ethyl]-2-[(1H-imidazol-1-yl)methyl]-1,3-dioxolane hydrochloride]",1.9 ± 0.2 µM,,> 100 µM,,
"Clc1ccc(CCC2(Cn3ccnc3)OCCO2)cc1 [2-[2-(4-chlorophenyl)ethyl]-2-[(1H-imidazol-1-yl)methyl]-1,3-dioxolane hydrochloride]",4 ± 2 µM,> 100 µM,,,
"c1ccc(CCC2(Cn3ccnc3)OCCO2)cc1 [2-[2-phenylethyl]-2-[(1H-imidazol-1-yl)methyl]-1,3-dioxolane hydrochloride]",0.7 ± 0.4 µM,> 100 µM,,,
c1ccc2c(CCn3ccnc3)c[nH]c2c1 [3-[2-(1H-Imidazol-1-yl)-ethyl]-1H-indole hydrochloride],40 ± 7 µM,> 100 µM,,,
O=C(CCc1ccccc1)Cn1ccnc1-c1ccccc1 [4-phenyl-1-(2-phenyl-imidazol-1-yl)butan-2-one hydrochloride],> 100 µM,> 100 µM,,,
Clc1ccc(OCCCCCNc2nc3ccccc3[nH]2)cc1 [(1H-Benzoimidazol-2-yl)-[5-(4-chloro-phenoxy)-pentyl]-amine],~98 µM,~105 µM,,,
"OC[C@@H]1CO[C@@](CCc2ccc(Cl)cc2)(Cn2ccnc2)O1 [(2R,4R)-2-[2-(4-chlorophenyl)ethyl]-2-[(1H-imidazol-1-yl)methyl]-4-(hydroxymethyl)-1,3-dioxolane hydrochloride]",12 ± 2 µM,> 100 µM,,,
"C[C@@H]1CO[C@@](CCc2ccc(Cl)cc2)(Cn2ccnc2)O1 [(2R,4R)-2-[2-(4-chlorophenyl)ethyl]-2-[(1H-imidazol-1-yl)methyl]-4-methyl-1,3-dioxolane hydrochloride]",0.8 ± 0.2 µM,305 ± 25 µM,,,
"C[C@@H]1CO[C@@](CCc2ccccc2)(Cn2ccnc2)O1 [(2R,4R)-2-[2-(4-phenyl)ethyl]-2-[(1H-imidazol-1-yl)methyl]-4-methyl-1,3-dioxolane hydrochloride]",2 ± 1 µM,> 43 µM,,,
"Clc1ccc(CC[C@@]2(Cn3ccnc3)OC[C@@H](CSc3ccc4ccccc4c3)O2)cc1 [(2R,4S)-1-[2-[2-(4-chloro-phenyl)-ethyl]-4-(naphthalen-2-ylsulfanylmethyl)-[1,3]dioxolan-2-ylmethyl]-1H-imidazole hydrochloride]",0.9 ± 0.1 µM,30 ± 4 µM,,,
"Clc1ccc(CC[C@@]2(Cn3ccnc3)OC[C@@H](CSc3ccccc3Br)O2)cc1 [(2R,4S)-1-{4-(2-bromo-phenylsulfanylmethyl)-2-[2-(4-chloro-phenyl)-ethyl]-[1,3]dioxolan-2-ylmethyl}-1H-imidazole hydrochloride]",6 ± 1 µM,12.3 ± 0.5 µM,,,
"Clc1ccc(CC[C@@]2(Cn3ccnc3)OC[C@@H](CSc3cccc(Br)c3)O2)cc1 [(2R,4S)-1-{4-(3-bromo-phenylsulfanylmethyl)-2-[2-(4-chloro-phenyl)-ethyl]-[1,3]dioxolan-2-ylmethyl}-1H-imidazole hydrochloride]",5 ± 2 µM,22 ± 9 µM,,,
"CSC[C@@H]1CO[C@@](CCc2ccc(Cl)cc2)(Cn2ccnc2)O1 [(2R,4S)-2-[2-(4-chlorophenyl)ethyl]-2-[(1H-imidazol-1-yl)methyl]-4-[(methylthio)methyl]-1,3-dioxolane hydrochloride]",9 ± 2 µM,19 ± 7 µM,,,
"Cc1ccc(S(=O)(=O)OC[C@@H]2CO[C@@](CCc3ccc(Cl)cc3)(Cn3ccnc3)O2)cc1 [(2R,4S)-2-[2-(4-chlorophenyl)ethyl]-2-[(1H-imidazol-1-yl)methyl]-4-[(p-toluenesulfonyloxy)meth-yl]-1,3-dioxolane]",,,,3 ± 1 µM,6 ± 2 µM
"Clc1ccc(CC[C@@]2(Cn3ccnc3)OC[C@@H](CSc3ccccc3)O2)cc1 [(2R,4S)-2-[2-(4-chlorophenyl)ethyl]-2-[(1H-imidazol-1-yl)methyl]-4-[(phenylthio)methyl]-1,3-dioxolane hydrochloride]",1.03 ± 0.07 µM,34 ± 12 µM,,,
"Nc1ccccc1SC[C@@H]1CO[C@@](CCc2ccc(Cl)cc2)(Cn2ccnc2)O1 [(2R,4S)-2-[2-(4-chlorophenyl)ethyl]-2-[(1H-imidazol-1-yl)methyl]-4-[{(2-aminophenyl)thio}meth-yl]-1,3-dioxolane dihydrochloride]",4 ± 2 µM,42 ± 28 µM,,,
"Nc1cccc(SC[C@@H]2CO[C@@](CCc3ccc(Cl)cc3)(Cn3ccnc3)O2)c1 [(2R,4S)-2-[2-(4-chlorophenyl)ethyl]-2-[(1H-imidazol-1-yl)methyl]-4-[{(3-aminophenyl]-4-[{(3-aminophenyl)thio}meth-yl]-1,3-dioxolane hydrochloride]",4 ± 2 µM,6 ± 1 µM,,,
"Nc1ccc(SC[C@@H]2CO[C@@](CCc3ccc(Cl)cc3)(Cn3ccnc3)O2)cc1 [(2R,4S)-2-[2-(4-chlorophenyl)ethyl]-2-[(1H-imidazol-1-yl)methyl]-4-[{(4-aminophenyl)thio}meth-yl]-1,3-dioxolane hydrochloride]",0.33 ± 0.07 µM,8 ± 1 µM,,,
